Experimental data reported in patent publication US11420958B2, “Aryl and heteroaryl substituted indole compounds” (BRISTOL-MYERS SQUIBB COMPANY, priority 2017, dated 2022).

Columns and labels:
Format in all cases: cell-based
human TLR7 = human TLR7 (Homo sapiens (Human), UniProt Q9NYK1); test: TLR7 inhibition reporter assay (HEK-Blue, SEAP); settings: HEK-Blue cells overexpressing human TLR7, gardiquimod 7.5 μM stimulation
Method in brief: (§1)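 Percent inhibition of agonist-induced SEAP secretion was scored against DMSO-only and reference-inhibitor controls. Stimulation lasted 22 h at 37 °C following 30 min compound pre-exposure (0.05 nM–50 μM); ligands were gardiquimod 7.5 μM, R848 15.9 μM and ODN2006 5 nM for TLR7, 8 and 9.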

human TLR8 = human TLR8 (Homo sapiens (Human), UniProt Q9NR97); test: TLR8 inhibition reporter assay (HEK-Blue, SEAP); settings: HEK-Blue cells overexpressing human TLR8, R848 15.9 μM stimulation
human TLR8, sequence (Q9NR97 27-1041): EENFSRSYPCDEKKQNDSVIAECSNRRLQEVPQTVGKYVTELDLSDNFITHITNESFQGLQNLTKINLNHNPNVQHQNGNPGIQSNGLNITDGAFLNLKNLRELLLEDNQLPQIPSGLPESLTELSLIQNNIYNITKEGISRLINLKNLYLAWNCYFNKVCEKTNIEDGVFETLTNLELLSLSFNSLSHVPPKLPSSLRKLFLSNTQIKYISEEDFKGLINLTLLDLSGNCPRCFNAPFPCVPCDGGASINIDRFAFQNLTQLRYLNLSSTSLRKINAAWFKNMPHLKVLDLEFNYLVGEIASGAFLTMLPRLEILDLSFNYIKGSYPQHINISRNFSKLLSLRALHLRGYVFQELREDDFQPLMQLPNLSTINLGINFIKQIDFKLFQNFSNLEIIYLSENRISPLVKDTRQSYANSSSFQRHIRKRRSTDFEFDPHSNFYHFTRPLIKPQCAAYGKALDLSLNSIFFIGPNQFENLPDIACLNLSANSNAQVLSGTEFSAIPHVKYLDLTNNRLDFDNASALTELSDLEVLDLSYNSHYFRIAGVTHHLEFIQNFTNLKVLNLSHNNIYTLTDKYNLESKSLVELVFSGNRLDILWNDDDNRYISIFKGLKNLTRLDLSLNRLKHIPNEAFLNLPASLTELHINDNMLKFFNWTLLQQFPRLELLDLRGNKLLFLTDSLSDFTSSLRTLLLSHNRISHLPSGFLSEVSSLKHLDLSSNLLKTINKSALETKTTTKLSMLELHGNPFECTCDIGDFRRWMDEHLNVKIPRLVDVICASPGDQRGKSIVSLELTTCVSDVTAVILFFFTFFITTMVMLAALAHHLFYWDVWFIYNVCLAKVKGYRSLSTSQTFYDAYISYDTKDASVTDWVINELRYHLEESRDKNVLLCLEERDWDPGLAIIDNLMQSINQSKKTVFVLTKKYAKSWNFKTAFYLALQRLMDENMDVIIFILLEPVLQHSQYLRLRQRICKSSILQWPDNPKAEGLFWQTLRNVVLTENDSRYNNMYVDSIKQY
Method in brief: as §1

human TLR9 = human TLR9 (Homo sapiens (Human), UniProt Q9NR96); test: TLR9 inhibition reporter assay (HEK-Blue, SEAP); settings: HEK-Blue cells overexpressing human TLR9, ODN2006 5 nM stimulation
human TLR9, sequence (Q9NR96 26-1032): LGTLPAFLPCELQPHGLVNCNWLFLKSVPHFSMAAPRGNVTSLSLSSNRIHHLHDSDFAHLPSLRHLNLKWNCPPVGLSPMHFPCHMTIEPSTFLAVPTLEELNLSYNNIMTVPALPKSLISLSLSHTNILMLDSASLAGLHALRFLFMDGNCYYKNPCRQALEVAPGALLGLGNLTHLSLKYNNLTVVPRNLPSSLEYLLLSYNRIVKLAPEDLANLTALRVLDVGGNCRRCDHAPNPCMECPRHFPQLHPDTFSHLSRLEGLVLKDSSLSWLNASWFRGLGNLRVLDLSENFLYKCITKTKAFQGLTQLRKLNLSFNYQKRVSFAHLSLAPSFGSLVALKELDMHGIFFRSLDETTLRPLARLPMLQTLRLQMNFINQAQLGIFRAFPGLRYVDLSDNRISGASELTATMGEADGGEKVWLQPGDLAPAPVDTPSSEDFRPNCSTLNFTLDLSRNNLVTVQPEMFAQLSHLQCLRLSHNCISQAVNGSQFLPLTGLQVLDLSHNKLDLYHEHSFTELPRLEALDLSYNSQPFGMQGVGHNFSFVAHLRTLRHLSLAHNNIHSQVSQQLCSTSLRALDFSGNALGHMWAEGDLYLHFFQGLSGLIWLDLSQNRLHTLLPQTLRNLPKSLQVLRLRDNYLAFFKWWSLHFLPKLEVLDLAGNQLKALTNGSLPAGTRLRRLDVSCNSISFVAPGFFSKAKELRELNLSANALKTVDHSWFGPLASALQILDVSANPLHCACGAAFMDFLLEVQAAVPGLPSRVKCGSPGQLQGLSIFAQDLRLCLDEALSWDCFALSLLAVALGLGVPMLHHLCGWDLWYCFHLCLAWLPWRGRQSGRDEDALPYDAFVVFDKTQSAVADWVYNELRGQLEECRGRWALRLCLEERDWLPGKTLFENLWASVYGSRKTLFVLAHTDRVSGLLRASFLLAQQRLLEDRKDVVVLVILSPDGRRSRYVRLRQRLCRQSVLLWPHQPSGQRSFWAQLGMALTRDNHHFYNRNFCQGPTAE
Method in brief: as §1

human TLR7, sequence (Q9NYK1 27-1049): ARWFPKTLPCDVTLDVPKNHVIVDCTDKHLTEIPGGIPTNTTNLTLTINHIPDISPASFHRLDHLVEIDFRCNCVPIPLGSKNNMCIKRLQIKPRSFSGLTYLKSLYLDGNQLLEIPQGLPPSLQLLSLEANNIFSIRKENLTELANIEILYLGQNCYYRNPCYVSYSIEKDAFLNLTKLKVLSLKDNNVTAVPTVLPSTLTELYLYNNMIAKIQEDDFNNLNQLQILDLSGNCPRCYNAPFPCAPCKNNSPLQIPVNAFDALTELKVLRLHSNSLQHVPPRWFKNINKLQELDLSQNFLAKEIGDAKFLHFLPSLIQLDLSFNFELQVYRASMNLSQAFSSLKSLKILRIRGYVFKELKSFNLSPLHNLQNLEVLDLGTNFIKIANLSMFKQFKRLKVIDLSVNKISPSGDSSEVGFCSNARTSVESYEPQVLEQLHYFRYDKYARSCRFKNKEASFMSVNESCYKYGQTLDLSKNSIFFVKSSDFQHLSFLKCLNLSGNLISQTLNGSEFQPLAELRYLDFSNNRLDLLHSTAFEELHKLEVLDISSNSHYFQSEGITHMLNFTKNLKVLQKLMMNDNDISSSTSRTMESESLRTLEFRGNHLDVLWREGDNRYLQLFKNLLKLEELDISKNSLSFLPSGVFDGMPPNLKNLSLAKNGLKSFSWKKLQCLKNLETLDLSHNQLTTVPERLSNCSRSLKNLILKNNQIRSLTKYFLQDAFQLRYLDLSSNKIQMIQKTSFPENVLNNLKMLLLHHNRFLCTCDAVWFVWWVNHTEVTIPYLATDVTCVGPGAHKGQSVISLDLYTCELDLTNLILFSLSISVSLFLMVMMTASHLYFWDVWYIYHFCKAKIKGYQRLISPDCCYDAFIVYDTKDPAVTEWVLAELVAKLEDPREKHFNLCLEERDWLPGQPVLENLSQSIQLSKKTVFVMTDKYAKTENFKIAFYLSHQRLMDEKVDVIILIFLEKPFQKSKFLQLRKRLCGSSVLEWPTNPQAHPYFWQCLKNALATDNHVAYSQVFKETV

| Structure (SMILES) | IC50 (human TLR7) [nM] | IC50 (human TLR8) [nM] | IC50 (human TLR9) [nM] |
| --- | --- | --- | --- |
| Cc1cc(-c2[nH]c3ccc(-c4cnc(C5CCNCC5)[nH]4)cc3c2C(C)C)ccn1 [Example 254, 3-isopropyl-2-(2-methylpyridin-4-yl)-5-(2-(piperidin-4-yl)-1H-imidazol-5-yl)-1H-indole] | 88 | 77 | 1210 |
| Cc1cc(-c2[nH]c3ccc(-c4nnc([C@H]5CSCN5)o4)cc3c2C(C)C)ccn1 [Example 82, (S)-2-(3-isopropyl-2-(2-methylpyridin-4-yl)-1H-indol-5-yl)-5-(thiazolidin-4-yl)-1,3,4-oxadiazole] | 596 | 96 | > 50000 |
| Cc1cc(-c2[nH]c3ccc(-c4nnc(Cc5c[nH]c6ccccc56)o4)cc3c2C(C)C)ccn1 [Example 73, 2-((1H-indol-3-yl)methyl)-5-(3-isopropyl-2-(2-methylpyridin-4-yl)-1H-indol-5-yl)-1,3,4-oxadiazole] | 2290 | 1290 | > 50000 |
| CNC(=O)CN1CCC(c2nnc(-c3ccc4[nH]c(-c5ccnc6[nH]ncc56)c(C(C)C)c4c3)o2)CC1 [Example 88, 2-(4-(5-(3-isopropyl-2-(1H-pyrazolo[3,4-b]pyridin-4-yl)-1H-indol-5-yl)-1,3,4-oxadiazol-2-yl)piperidin-1-yl)-N-methylacetamide] | 294 | 10 | 4760 |
| Cc1cc(-c2[nH]c3ccc(-c4nc(C(=O)NCC5CCNC5)co4)cc3c2C(C)C)cc(C)n1 (stereo not drawn) [Example 276, 2-(2-(2,6-dimethylpyridin-4-yl)-3-isopropyl-1H-indol-5-yl)-N-(pyrrolidin-3-ylmethyl)oxazole-4-carboxamide] | 49 | 26 | 1080 |

Now from value to compound:

| IC50 (human TLR7) [nM] | IC50 (human TLR8) [nM] | IC50 (human TLR9) [nM] | Structure (SMILES) |
| --- | --- | --- | --- |
| 166 | 106 | 38100 | Cc1cc(-c2[nH]c3ccc(-c4ccc(N5CC(C)OC(C)C5)nc4)cc3c2C(C)C)cc(C)n1 (stereo not drawn) [Example 335, 4-(5-(2-(2,6-dimethylpyridin-4-yl)-3-isopropyl-1H-indol-5-yl)pyridin-2-yl)-2,6-dimethylmorpholine] |
| 27 | 4 | 1020 | CC(C)c1c(-c2ccnc3[nH]ncc23)[nH]c2ccc(-c3noc(C4CCN(C(=O)CN(C)C)CC4)n3)cc12 [Example 446, 2-(dimethylamino)-1-(4-(3-(3-isopropyl-2-(1H-pyrazolo[3,4-b]pyridin-4-yl)-1H-indol-5-yl)-1,2,4-oxadiazol-5-yl)piperidin-1-yl)ethan-1-one] |
| 194 | 12 | 14500 | CC(C)c1c(-c2ccnc3[nH]ncc23)[nH]c2ccc(-c3ccnn3C)cc12 [Example 428, 4-(3-isopropyl-5-(1-methyl-1H-pyrazol-5-yl)-1H-indol-2-yl)-1H-pyrazolo[3,4-b]pyridine] |
| 1490 | 331 | 11100 | COc1ccc(-c2[nH]c3ccc(-c4cnc(N5CCN(C6CCC6)CC5)nc4)cc3c2C(C)C)cc1OC [Example 436, 5-(2-(4-cyclobutylpiperazin-1-yl)pyrimidin-5-yl)-2-(3,4-dimethoxyphenyl)-3-isopropyl-1H-indole] |
| 1650 | 183 | 2730 | CCc1c(-c2ccc(OC)c(OC)c2)[nH]c2ccc(-c3noc([C@@H](N)CCCCN)n3)cc12 [Example 464, (S)-1-(3-(2-(3,4-dimethoxyphenyl)-3-ethyl-1H-indol-5-yl)-1,2,4-oxadiazol-5-yl)pentane-1,5-diamine] |
| 5.2 | 3.6 | 432 | Cc1cc(-c2[nH]c3ccc(-c4ccc(N5CCN(C)CC5)nc4)cc3c2C(C)C)cc(C)n1 [Example 301, 2-(2,6-dimethylpyridin-4-yl)-3-isopropyl-5-(6-(4-methylpiperazin-1-yl)pyridin-3-yl)-1H-indole] |
